Earlier results, collected in patent US8535717B2, “Pharmaceutical composition” (Sun Pharma Advanced Research Company Limited, priority 2005, dated 2013).

CC[C@@H](C(N)=O)N1CCCC1=O [levetiracetam]
solubility (cannot be decreased by altering pH of the microenvironment): 104 g/100 ml
solubility in water (water): 104 g in 100 ml
